Laboratory results from the supplement of paper PMC10733146.

Key:
Test in all cases: viability relative to DMSO control (fraction); higher = less drug effect (more viable cells)
Settings in all cases: 48 h
[1] = tested on: primary MCL patient cells (S041)
Summary of the method: (§1)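 Cells were incubated for 48 h at 37 °C and 5% CO2 in RPMI-1640 with penicillin/streptomycin, L-glutamine and human serum, at 4 × 10^4 cells per well in 384-well plates with compounds pre-plated at five concentrations, one well each. These were primary mononuclear tumour cells, fresh or cryopreserved, Ficoll-isolated from blood or bone marrow or obtained from processed lymph node. Viability values are CellTiter-Glo luminescence relative to the median of 16 inner DMSO wells.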

[2] = tested on: primary AML patient cells (S011)
Summary of the method: as §1

[3] = tested on: primary AML patient cells (S055)
Summary of the method: as §1

[4] = tested on: primary B-PLL patient cells (S016)
Summary of the method: as §1

[5] = tested on: primary T-PLL patient cells (S008)
Summary of the method: as §1

[6] = tested on: primary AML patient cells (S009)
Summary of the method: as §1

[7] = tested on: primary FL patient cells (S087)
Summary of the method: as §1

[8] = tested on: primary AML patient cells (S060)
Summary of the method: as §1

[9] = tested on: primary AML patient cells (S081)
Summary of the method: as §1

[10] = tested on: primary MCL patient cells (S063)
Summary of the method: as §1

[11] = tested on: primary AML patient cells (S006)
Summary of the method: as §1

[12] = tested on: primary ALL patient cells (S088)
Summary of the method: as §1

[13] = tested on: primary DLBCL patient cells (S082)
Summary of the method: as §1

[14] = tested on: primary AML patient cells (S021)
Summary of the method: as §1

COc1cccc2c1C(=O)c1c(O)c3c(c(O)c1C2=O)C[C@@](O)(C(C)=O)C[C@@H]3O[C@H]1C[C@H](N)[C@H](O)[C@H](C)O1 [Daunorubicin]
viability ([1]; 0.0016 µM): 1.16 | viability ([1]; 0.008 µM): 1.11 | viability ([1]; 0.04 µM): 0.931 | viability ([1]; 0.2 µM): 0.323 | viability ([1]; 1 µM): 0.0341 | viability ([2]; 0.0016 µM): 1.02 | viability ([2]; 0.008 µM): 1.07 | viability ([2]; 0.04 µM): 0.409 | viability ([2]; 0.2 µM): 0.0898 | viability ([2]; 1 µM): 0.0206 | viability ([3]; 0.0016 µM): 1.03 | viability ([3]; 0.008 µM): 1.05 | viability ([3]; 0.04 µM): 0.991 | viability ([3]; 0.2 µM): 0.904 | viability ([3]; 1 µM): 0.0407 | viability ([4]; 0.0016 µM): 1.21 | viability ([4]; 0.008 µM): 0.74 | viability ([4]; 0.04 µM): 0.0721 | viability ([4]; 0.2 µM): 0.0359 | viability ([4]; 1 µM): 0.0137 | viability ([5]; 0.0016 µM): 1.08 | viability ([5]; 0.008 µM): 1.09 | viability ([5]; 0.04 µM): 0.947 | viability ([5]; 0.2 µM): 0.82 | viability ([5]; 1 µM): 0.0568 | viability ([6]; 0.0016 µM): 1.1 | viability ([6]; 0.008 µM): 0.833 | viability ([6]; 0.04 µM): 0.722 | viability ([6]; 0.2 µM): 0.378 | viability ([6]; 1 µM): 0.0702 | viability ([7]; 0.0016 µM): 1.13 | viability ([7]; 0.008 µM): 1.03 | viability ([7]; 0.04 µM): 0.856 | viability ([7]; 0.2 µM): 0.693 | viability ([7]; 1 µM): 0.588 | viability ([8]; 0.0016 µM): 1.16 | viability ([8]; 0.008 µM): 1.14 | viability ([8]; 0.04 µM): 1.07 | viability ([8]; 0.2 µM): 1.14 | viability ([8]; 1 µM): 0.0333 | viability ([9]; 0.0016 µM): 1.07 | viability ([9]; 0.008 µM): 1.16 | viability ([9]; 0.04 µM): 1.15 | viability ([9]; 0.2 µM): 1.2 | viability ([9]; 1 µM): 0.0266 | viability ([10]; 0.0016 µM): 1.2 | viability ([10]; 0.008 µM): 1.14 | viability ([10]; 0.04 µM): 0.979 | viability ([10]; 0.2 µM): 0.528 | viability ([10]; 1 µM): 0.0178 | viability ([11]; 0.0016 µM): 1.19 | viability ([11]; 0.008 µM): 0.923 | viability ([11]; 0.04 µM): 0.248 | viability ([11]; 0.2 µM): 0.075 | viability ([11]; 1 µM): 0.0282 | viability ([12]; 0.0016 µM): 1.13 | viability ([12]; 0.008 µM): 0.849 | viability ([12]; 0.04 µM): 0.235 | viability ([12]; 0.2 µM): 0.0841 | viability ([12]; 1 µM): 0.0273 | viability ([13]; 0.0016 µM): 1.1 | viability ([13]; 0.008 µM): 1.07 | viability ([13]; 0.04 µM): 0.838 | viability ([13]; 0.2 µM): 0.714 | viability ([13]; 1 µM): 0.0208 | viability ([14]; 0.0016 µM): 1.09 | viability ([14]; 0.008 µM): 0.972 | viability ([14]; 0.04 µM): 0.424 | viability ([14]; 0.2 µM): 0.216 | viability ([14]; 1 µM): 0.145

CC(C)(C)C[C@@H]1N[C@@H](C(=O)N[C@H]2CC[C@H](O)CC2)[C@H](c2cccc(Cl)c2F)[C@]12C(=O)Nc1cc(Cl)ccc12 [MI-773]
viability ([1]; 0.008 µM): 1.02 | viability ([1]; 0.04 µM): 0.976 | viability ([1]; 0.2 µM): 0.92 | viability ([1]; 1 µM): 0.752 | viability ([1]; 5 µM): 0.434 | viability ([2]; 0.008 µM): 0.937 | viability ([2]; 0.04 µM): 0.938 | viability ([2]; 0.2 µM): 0.7 | viability ([2]; 1 µM): 0.465 | viability ([2]; 5 µM): 0.218 | viability ([3]; 0.008 µM): 1.01 | viability ([3]; 0.04 µM): 1.01 | viability ([3]; 0.2 µM): 0.997 | viability ([3]; 1 µM): 0.919 | viability ([3]; 5 µM): 0.409 | viability ([4]; 0.008 µM): 0.954 | viability ([4]; 0.04 µM): 0.858 | viability ([4]; 0.2 µM): 0.771 | viability ([4]; 1 µM): 0.568 | viability ([4]; 5 µM): 0.0958 | viability ([5]; 0.008 µM): 0.99 | viability ([5]; 0.04 µM): 0.946 | viability ([5]; 0.2 µM): 0.989 | viability ([5]; 1 µM): 0.677 | viability ([5]; 5 µM): 0.258 | viability ([6]; 0.008 µM): 0.894 | viability ([6]; 0.04 µM): 0.755 | viability ([6]; 0.2 µM): 0.698 | viability ([6]; 1 µM): 0.56 | viability ([6]; 5 µM): 0.524 | viability ([7]; 0.008 µM): 1 | viability ([7]; 0.04 µM): 0.99 | viability ([7]; 0.2 µM): 0.937 | viability ([7]; 1 µM): 0.849 | viability ([7]; 5 µM): 0.694 | viability ([8]; 0.008 µM): 1.06 | viability ([8]; 0.04 µM): 0.997 | viability ([8]; 0.2 µM): 1.09 | viability ([8]; 1 µM): 0.99 | viability ([8]; 5 µM): 1.09 | viability ([9]; 0.008 µM): 1 | viability ([9]; 0.04 µM): 1.05 | viability ([9]; 0.2 µM): 1.11 | viability ([9]; 1 µM): 1.02 | viability ([9]; 5 µM): 1.12 | viability ([10]; 0.008 µM): 1.07 | viability ([10]; 0.04 µM): 1.05 | viability ([10]; 0.2 µM): 0.995 | viability ([10]; 1 µM): 0.705 | viability ([10]; 5 µM): 0.246 | viability ([11]; 0.008 µM): 0.915 | viability ([11]; 0.04 µM): 0.761 | viability ([11]; 0.2 µM): 0.481 | viability ([11]; 1 µM): 0.194 | viability ([11]; 5 µM): 0.0491 | viability ([12]; 0.008 µM): 1 | viability ([12]; 0.04 µM): 0.88 | viability ([12]; 0.2 µM): 0.701 | viability ([12]; 1 µM): 0.366 | viability ([12]; 5 µM): 0.151 | viability ([13]; 0.008 µM): 1.07 | viability ([13]; 0.04 µM): 0.971 | viability ([13]; 0.2 µM): 1.14 | viability ([13]; 1 µM): 0.98 | viability ([13]; 5 µM): 1.03 | viability ([14]; 0.008 µM): 1 | viability ([14]; 0.04 µM): 0.966 | viability ([14]; 0.2 µM): 0.648 | viability ([14]; 1 µM): 0.46 | viability ([14]; 5 µM): 0.215
